Patent US7999115B2, “Spiro antibiotic derivatives” (Actelion Pharmaceutical Ltd., priority 2006, dated 2011)
In brackets after ≈: the same amount, converted by molar mass.

How the values were obtained:
Type in all cases: cell-based
S. aureus A798 = test: MIC by broth microdilution (NCCLS), S. aureus A798; settings: cation-adjusted Mueller-Hinton Broth, pH 7.2-7.3; for MIC: Staphylococcus aureus, A798, second table
Experimental: (§1) These assays have been performed following the description given in “Methods for dilution Antimicrobial Susceptibility Tests for Bacteria that Grow Aerobically, 4th ed.; Approved standard: NCCLS Document M7-A4; National Committee for Clinical Laboratory Standards Villanova, Pa., USA, 1997”. Minimal inhibitory concentrations (MICs; mg/l) were determined in cation-adjusted Mueller-Hinton Broth (BBL) by a microdilution method following NCCLS guidelines (National Committee for Clinical Laboratory Standards. Methods for Dilution Antimicrobial Susceptibility). The pH of the test medium was 7.2-7.3. All Example compounds were tested against several Gram positive and Gram negative bacteria.

M. catarrhalis A894 = test: MIC by broth microdilution (NCCLS), M. catarrhalis A894; settings: cation-adjusted Mueller-Hinton Broth, pH 7.2-7.3
Experimental: as §1

S. pneumoniae 49619 = test: MIC by broth microdilution (NCCLS), S. pneumoniae 49619; settings: cation-adjusted Mueller-Hinton Broth, pH 7.2-7.3
Experimental: as §1

Molecule	MIC S. aureus A798 (S. aureus A798; second table)	other results
COc1ccc2nccc(CCC3(O)CCC4(CC3)CN(c3ccc5c(c3)NC(=O)CS5)C(=O)O4)c2n1 (stereo not drawn) [Example 12, cis or trans-6-{8-hydroxy-8-[2-(6-methoxy-[1,5]naphthyridin-4-yl)-ethyl]-2-oxo-1-oxa-3-aza-spiro[4.5]dec-3-yl}-4H-benzo[1,4]thiazin-3-one]	≦0.031 mg/l	–
COc1ccc2nccc(CCC3CCC4(CC3)CN(c3ccc5c(c3)NC(=O)CO5)C(=O)O4)c2n1 (mixture of isomers) [Example 16, cis/trans-6-{8-[2-(6-methoxy-[1,5]naphthyridin-4-yl)-ethyl]-2-oxo-1-oxa-3-aza-spiro[4.5]dec-3-yl}-4H-benzo[1,4]oxazin-3-one]	≦0.031 mg/l	–
COC(=O)C[C@@H]1CN(C[C@H](O)c2ccnc3ccc(OC)cc23)CC[C@]12CN(c1ccc3c(c1)OCCO3)C(=O)O2 (racemic) [Example 7, (5RS,6RS)-{3-(2,3-dihydro-benzo[1,4]dioxin-6-yl)-8-[(2RS)-2-hydroxy-2-(6-methoxy-quinolin-4-yl)-ethyl]-2-oxo-1-oxa-3,8-diaza-spiro[4.5]dec-6-yl}-acetic acid methyl ester]	–	MIC (S. aureus A798): 2 µg/mL (≈ 3.55 µM)
COc1ccc2nccc(C(O)CN3CCC4(CC3)CN(c3ccc5c(c3)OCCO5)C(=O)O4)c2c1 (racemic) [Example 4, 3-(2,3-dihydro-benzo[1,4]dioxin-6-yl)-8-[(2RS)-2-hydroxy-2-(6-methoxy-quinolin-4-yl)-ethyl]-1-oxa-3,8-diaza-spiro[4.5]decan-2-one]	–	MIC (S. aureus A798): ≤ 0.031 µg/mL
COc1ccc2ncnc(OC[C@H]3CC[C@@]4(CC3)CN(c3ccc5c(c3)OCCO5)C(=O)O4)c2c1 [Example 19, cis-3-(2,3-dihydro-benzo[1,4]dioxin-6-yl)-8-(6-methoxy-quinazolin-4-yloxymethyl)-1-oxa-3-aza-spiro[4.5]decan-2-one]	0.125 µg/mL (≈ 0.262 µM)	MIC S. aureus A798 (S. aureus A798): 0.125 µg/mL (≈ 0.262 µM); MIC M. catarrhalis A894 (M. catarrhalis A894): 0.5 µg/mL (≈ 1.05 µM); MIC S. pneumoniae 49619 (S. pneumoniae 49619): 0.25 µg/mL (≈ 0.524 µM)
C=CC[C@@H]1CN(C[C@H](O)c2ccnc3ccc(OC)cc23)CC[C@]12CN(c1ccc3c(c1)OCCO3)C(=O)O2 (racemic) [Example 6, (5RS, 6RS)-6-allyl-3-(2,3-dihydro-benzo[1,4]dioxin-6-yl)-8-[(2RS)-2-hydroxy-2-(6-methoxy-quinolin-4-yl)-ethyl]-1-oxa-3,8-diaza-spiro[4.5]decan-2-one]	–	MIC (S. aureus A798): 1 µg/mL (≈ 1.88 µM)
COc1ccc2nccc(OCC3CCC4(CC3)CN(c3ccc5c(c3)OCCO5)C(=O)O4)c2c1 (stereo not drawn) [Example 2, cis-3-(2,3-dihydro-benzo[1,4]dioxin-6-yl)-8-(6-methoxy-quinolin-4-yloxymethyl)-1-oxa-3-aza-spiro[4.5]decan-2-one]	0.25 µg/mL (≈ 0.525 µM)	–
COc1ccc2nccc(CCC3(O)CCC4(CC3)CN(c3ccc5c(c3)NC(=O)CO5)C(=O)O4)c2n1 (stereo not drawn) [Example 15, cis or trans-6-{8-hydroxy-8-[2-(6-methoxy-[1,5]naphthyridin-4-yl)-ethyl]-2-oxo-1-oxa-3-aza-spiro[4.5]dec-3-yl}-4H-benzo[1,4]oxazin-3-one]	≦0.031 mg/l	–
COc1ccc2nccc(CCC3(O)CCC4(CC3)CN(c3ccc5c(c3)NC(=O)CS5)C(=O)O4)c2n1 (stereo not drawn) [Example 13, cis or trans-6-{8-hydroxy-8-[2-(6-methoxy-[1,5]naphthyridin-4-yl)-ethyl]-2-oxo-1-oxa-3-aza-spiro[4.5]dec-3-yl}-4H-benzo[1,4]thiazin-3-one]	≦0.031 mg/l	–
COc1ccc2nccc(CCC3(O)CCC4(CC3)CN(c3ccc5c(c3)OCCO5)C(=O)O4)c2n1 (stereo not drawn) [Example 10, cis or trans-3-(2,3-dihydro-benzo[1,4]dioxin-6-yl)-8-hydroxy-8-[2-(6-methoxy-[1,5]naphthyridin-4-yl)-ethyl]-1-oxa-3-aza-spiro[4.5]decan-2-one]	0.125 µg/mL (≈ 0.254 µM)	–
COc1ccc2nccc(OCC3CCC4(CC3)CN(c3ccc5c(c3)OCCO5)C(=O)O4)c2n1 (stereo not drawn) [Example 3, cis-3-(2,3-dihydro-benzo[1,4]dioxin-6-yl)-8-(6-methoxy-[1,5]naphthyridin-4-yloxymethyl)-1-oxa-3-aza-spiro[4.5]decan-2-one]	2 µg/mL (≈ 4.19 µM)	–
COc1ccc2nccc([C@@H](O)CN3CC[C@]4(CN(c5ccc6c(c5)OCCO6)C(=O)O4)[C@H](CCO)C3)c2c1 (racemic) [Example 8, (5RS, 6RS)-3-(2,3-dihydro-benzo[1,4]dioxin-6-yl)-6-(2-hydroxy-ethyl)-8-[(2RS)-2-hydroxy-2-(6-methoxy-quinolin-4-yl)-ethyl]-1-oxa-3,8-diaza-spiro[4.5]decan-2-one]	–	MIC (S. aureus A798): 1 µg/mL (≈ 1.87 µM)
COc1ccc2nccc(/C=C/C3CCC4(CC3)CN(c3ccc5c(c3)OCCO5)C(=O)O4)c2c1 (mixture of isomers) [Example 17, cis/trans-3-(2,3-dihydro-benzo[1,4]dioxin-6-yl)-8-[(E)-2-(6-methoxy-quinolin-4-yl)-vinyl]-1-oxa-3-aza-spiro[4.5]decan-2-one]	2 µg/mL	–
(5R,6R,8S)-3-(2,3-dihydro-benzo[1,4]dioxin-6-yl)-8-[(2R)-2-hydroxy-2-(6-methoxy-[1,5]naphthyridin-4-yl)-ethyl]-6-hydroxymethyl-1,7-dioxa-3-aza-spiro[4.5]decan-2-one and (5R,6R,8S)-3-(2,3-dihydro-benzo[1,4]dioxin-6-yl)-8-[(2S)-2-hydroxy-2-(6-methoxy-[1,5]naphthyridin-4-yl)-ethyl]-6-hydroxymethyl-1,7-dioxa-3-aza-spiro[4.5]decan-2-one [Example 1]	0.5 µg/mL	–
COc1ccc2nccc(C(O)CN3CCC4(CC3)CN(c3ccc5c(c3)NC(=O)CS5)C(=O)O4)c2c1 (racemic) [Example 5, 6-{8-[(2RS)-2-hydroxy-2-(6-methoxy-quinolin-4-yl)-ethyl]-2-oxo-1-oxa-3,8-diaza-spiro[4.5]dec-3-yl}-4H-benzo[1,4]thiazin-3-one]	–	MIC (S. aureus A798): ≤ 0.031 µg/mL
COc1ccc2nccc(/C=C/C3CCC4(CC3)CN(c3ccc5c(c3)NC(=O)CS5)C(=O)O4)c2c1 (mixture of isomers) [Example 18, cis/trans-6-{8-[(E)-2-(6-methoxy-quinolin-4-yl)-vinyl]-2-oxo-1-oxa-3-aza-spiro[4.5]dec-3-yl}-4H-benzo[1,4]thiazin-3-one]	≦0.031 mg/l	MIC S. aureus A798 (S. aureus A798): ≦0.031 mg/l; MIC M. catarrhalis A894 (M. catarrhalis A894): ≦0.031 mg/l; MIC S. pneumoniae 49619 (S. pneumoniae 49619): 0.125 µg/mL
COc1ccc2nccc(CCC3(O)CCC4(CC3)CN(c3ccc5c(c3)NC(=O)CO5)C(=O)O4)c2n1 (stereo not drawn) [Example 14, cis or trans-6-{8-hydroxy-8-[2-(6-methoxy-[1,5]naphthyridin-4-yl)-ethyl]-2-oxo-1-oxa-3-aza-spiro[4.5]dec-3-yl}-4H-benzo[1,4]oxazin-3-one]	≦0.031 mg/l	–
COc1ccc2nccc(NC(=O)C3CCC4(CC3)CN(c3ccc5c(c3)OCCO5)C(=O)O4)c2n1 (mixture of isomers) [Example 9, cis/trans-3-(2,3-dihydro-benzo[1,4]dioxin-6-yl)-2-oxo-1-oxa-3-aza-spiro[4.5]decane-8-carboxylic acid (6-methoxy-[1,5]naphthyridin-4-yl)-amide]	≦0.031 mg/l	–
COc1ccc2nccc(CCC3(O)CCC4(CC3)CN(c3ccc5c(c3)OCCO5)C(=O)O4)c2n1 (stereo not drawn) [Example 11, cis or trans-3-(2,3-dihydro-benzo[1,4]dioxin-6-yl)-8-hydroxy-8-[2-(6-methoxy-[1,5]naphthyridin-4-yl)-ethyl]-1-oxa-3-aza-spiro[4.5]decan-2-one]	0.25 µg/mL (≈ 0.509 µM)	–
